Where a name gives a salt, the structure may show the parent alone.
Molecular target: purified human Factor XIa (Homo sapiens (Human), UniProt P03951)
Test: Factor XIa assay (chromogenic substrate S-2366 hydrolysis)
Assay type: biochemical
Settings: substrate S-2366, pH 7.4
Protocol: The effectiveness of compounds of the present invention as inhibitors of the coagulation factors XIa, VIIa, IXa, Xa, XIIa, plasma kallikrein or thrombin, can be determined using a relevant purified serine protease, respectively, and an appropriate synthetic substrate. The rate of hydrolysis of the chromogenic or fluorogenic substrate by the relevant serine protease was measured both in the absence and presence of compounds of the present invention. […] A decrease in the rate of absorbance or fluorescence change in the presence of inhibitor is indicative of enzyme inhibition. Such methods are known to one skilled in the art. The results of this assay are expressed as the inhibitory constant, Ki.
Factor XIa determinations were made in 50 mM HEPES buffer at pH 7.4 containing 145 mM NaCl, 5 mM KCl, and 0.1% PEG 8000 (polyethylene glycol; JT Baker or Fisher Scientific). Determinations were made using purified human Factor XIa at a final concentration of 75-200 pM (Haematologic Technologies) and the synthetic substrate S-2366 (pyroGlu-Pro-Arg-pNA; CHROMOGENIX® or AnaSpec) at a concentration of 0.0002-0.001 M.
The Michaelis constant, Km, for substrate hydrolysis by each protease, was determined at 25° C. using the method of Lineweaver and Burk. Values of Ki were determined by allowing the protease to react with the substrate in the presence of the inhibitor. Reactions were allowed to go for periods of 20-180 minutes (depending on the protease) and the velocities (rate of absorbance or fluorescence change versus time) were measured. The following relationships were used to calculate Ki values: (vo−vs)/vs=I/(Ki(1+S/Km)) for a competitive inhibitor with one binding site; or vs/vo=A+((B−A)/1+((IC50/(I)n))); and Ki═IC50/(1+S/Km) for a competitive inhibitor where: […]

Sequence of purified human Factor XIa (P03951 388-625): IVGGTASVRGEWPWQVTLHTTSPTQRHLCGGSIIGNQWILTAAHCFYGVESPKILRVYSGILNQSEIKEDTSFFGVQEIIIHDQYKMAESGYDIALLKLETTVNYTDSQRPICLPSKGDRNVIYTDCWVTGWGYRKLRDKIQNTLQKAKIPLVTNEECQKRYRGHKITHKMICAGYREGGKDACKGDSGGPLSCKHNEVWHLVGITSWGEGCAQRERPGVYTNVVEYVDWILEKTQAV
Sequence of purified human Factor XIa (P03951 19-387 partner): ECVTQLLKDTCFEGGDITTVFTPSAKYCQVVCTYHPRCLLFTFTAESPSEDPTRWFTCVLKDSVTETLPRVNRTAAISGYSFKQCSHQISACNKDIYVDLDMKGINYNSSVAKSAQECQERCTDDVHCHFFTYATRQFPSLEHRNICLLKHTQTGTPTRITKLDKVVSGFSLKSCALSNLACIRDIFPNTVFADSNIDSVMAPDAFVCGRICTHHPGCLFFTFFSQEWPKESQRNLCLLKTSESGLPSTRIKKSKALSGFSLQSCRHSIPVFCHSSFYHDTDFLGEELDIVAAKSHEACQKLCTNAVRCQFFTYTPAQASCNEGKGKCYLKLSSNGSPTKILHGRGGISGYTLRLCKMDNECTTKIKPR

SMILES | Ki [nM]
CNC(=O)c1ccc(-c2cccc3c2CCN(C(=O)[C@H]2CC[C@H](CN)CC2)C3C(=O)Nc2ccc(C(=O)O)cc2)cc1 (stereo partly drawn) [Example 4, 4-(2-((1r,4r)-4-(aminomethyl)cyclohexanecarbonyl)-5-(4-(methylcarbamoyl)phenyl)-1,2,3,4-tetrahydroisoquinoline-1-carboxamido)benzoic acid, TFA Salt] | < 5
COC1CCN(c2cccc3c2CCN(C(=O)c2ccc(N)cc2)C3C(=O)Nc2ccc(C(=O)O)cc2)CC1 (stereo not drawn) [Example 1, 4-(2-(4-aminobenzoyl)-5-(4-methoxypiperidin-1-yl)-1,2,3,4-tetrahydroisoquinoline-1-carboxamido)benzoic acid, bis-TFA salt] | 542
CC1(C)Cc2c(-c3ccc4c(c3)OCO4)cccc2C(C(=O)Nc2ccc(C(=O)O)cc2)N1C(=O)[C@H]1CC[C@H](CN)CC1 (stereo partly drawn) [Example 16] | 166
CC1(C)Cc2c(-c3ccc4ncccc4c3)cccc2C(C(=O)Nc2ccc(C(=O)O)cc2)N1C(=O)[C@H]1CC[C@H](CN)CC1 (stereo partly drawn) [Example 26] | 48.3
CC1(C)Cc2c(-c3cc4ccccc4s3)cccc2C(C(=O)Nc2ccc(C(=O)O)cc2)N1C(=O)[C@H]1CC[C@H](CN)CC1 (stereo partly drawn) [Example 20] | 782
NC[C@H]1CC[C@H](C(=O)N2CCc3ccccc3[C@H]2C(=O)Nc2ccc(C(=O)O)cc2)CC1 [Example 32, 4-((S)-2-((1r,4S)-4-(aminomethyl)cyclohexanecarbonyl)-1,2,3,4-tetrahydroisoquinoline-1-carboxamido)benzoic acid, TFA salt] | 84.6
